The values that follow come from US20140121240A1, “NOVEL PHARMACEUTICAL COMPOSITION” (MARUHO CO., LTD., priority 2011, published 2014).

The test system of series [1] is histamine-induced scratching behavior. Briefly: Antipruritic activity in histamine-induced scratching model, dose response (Experiment 3 (1)). In kind it is in vivo, mouse. The method, then: (1) [Antipruritic Activity of Test Compound in Histamine-Induced Scratching Model]
After topical administration of a solution (50 μL) of test compound (0.3 to 3% w/v solution of Compound A in acetone, or 0.03 to 0.3% w/v solution of cipamfylline in acetone), or a vehicle (acetone; 50 μL) onto right dorsal neck of ICR female mice similarly pre-treated as described in Experiment 1, these animals were placed into a testing apparatus (MicroAct). After one hour of the administration of said test compound solution or vehicle, a solution (50 μL) of histamine in saline (300 nmol/50 μL) or saline (50 μL; control group) was intradermally administered to right dorsal neck of each mouse. Immediately after the administration, scratching behavior (counts of scratching) was measured for 30 minutes by the testing apparatus (MicroAct).

Series [2] deals with spontaneous locomotor activity. Briefly: Effect on spontaneous locomotor activity (Experiment 3 (2)). In kind it is in vivo, mouse. Conditions: for Spontaneous locomotor activity (Mean): measured from 1 h after administration. On the procedure: (2) [Effect of Test Compound on Spontaneous Locomotor Activity] The same solution (50 μL) of test compound or a vehicle (50 μL) as described in the above-mentioned (1) was administered onto right dorsal neck of ICR female mice similarly pre-treated as described in Experiment 1. After one hour of the administration of the test compound solution or vehicle, these animals were placed into an apparatus for measuring spontaneous locomotor activity (SCANET, Melquest Ltd.), and their locomotor activity was measured for 30 minutes.

For a further series, the system named is PDE4. Briefly: PDE4 inhibitory activity measured by a conventional manner. Type of series: biochemical. The method, then: (§1) Ratio of inhibition rate on scratching behavior of each test compound to that of Compound A was calculated as antipruritic activity (%). For reference, PDE4 inhibitory activity of each compound (IC50) which was measured by a conventional manner is also shown in such Table.

The test system of series [3] is histamine-induced scratching behavior. Briefly: Antipruritic effect in histamine-induced scratching model (Experiment 2). In kind it is in vivo, mouse. Conditions: for Antipruritic activity (ratio of inhibition rate on scratching behavior to that of Compound A): 3% w/v in acetone 50 μL topical 1 h before histamine 300 nmol/50 μL, ICR female mice, counts for 30 minutes; for antipruritic effect in histamine-induced scratching model, result in words: 3% w/v topical, histamine 300 nmol/50 μL. The method, then: [Antipruritic Effect of Test Compound in Histamine-Induced Scratching Model]
After topical administration of a 3% w/v solution of a test compound or a reference compound as described in the following Table 6 in acetone (50 μL) or a vehicle (acetone; 50 μL) onto right dorsal neck of ICR female mice similarly pre-treated as described in Experiment 1, these animals were placed into a testing apparatus (MicroAct). After one hour of the administration of said compound solution or vehicle, a solution (50 μL) of histamine in saline (300 nmol/50 μL) or saline (50 μL) was intradermally administered to right dorsal neck of each mouse. Immediately after the administration, scratching behavior (counts of scratching) was measured for 30 minutes by MicroAct.
Inhibition rate on scratching behavior of each test compound was evaluated in terms of the following formula based on the counts of scratching in the test group in which each test compound solution was administered followed by administration of a histamine solution in saline (counts of scratching in compound-treated group), and the counts of scratching in the test group in which a vehicle (acetone) was administered followed by administration of a histamine solution in saline (counts of scratching in vehicle-treated group).
as §1

For series [4], the system named is oxazolone-induced scratching behavior. Briefly: Chronic oxazolone-induced dermatitis model: scratching behavior (Experiment 4). Conditions: Compound A 1%, Tacrolimus 0.1%, Dexamethasone 0.01% w/v in 0.25% oxazolone. Type of series: in vivo, mouse. On the procedure:
(§2) [Antipruritic Effect of Test Compound in Chronic Oxazolone-Induced Dermatitis Model]
(§3) A magnet for measurement was implanted into an instep part of right hindlimb of BALB/c male mouse (fed for one week from five-week old; Charles River Laboratories, Japan Inc.) under anesthesia, and on the same day, sensitization was carried out by topically administering 0.5% w/v solution (10 μL) of oxazolone in acetone respectively onto the both sides of right ear auricle of the animal (sensitization day). On each point of the 7th, 9th, 11th, 14th and 16th day reckoned from the day after the sensitization (1st day), each mouse was challenged by topical administration of a 10 μL solution of test compound [acetone (vehicle-treated group), 0.25% w/v solution of oxazolone in acetone (oxazolone-treated group), or a test compound solubilized in 0.25% w/v oxazolone solution in acetone (test compound-treated group)] onto the both sides of right ear auricle of the animal to produce inflammatory reactions. Immediately after the administration, scratching behavior (counts of scratching) was measured for two hours by MicroAct. Thickness of right ear auricle of each mouse was measured by a thickness gauge before and 24 hours after the topical administration of each test compound solution. The percentage described in the Table means “% w/v”.

The test system of series [5] is oxazolone-induced inflammatory reactions of right ear auricle. Briefly: Chronic oxazolone-induced dermatitis model: ear auricle thickness (Experiment 4). In kind it is in vivo, mouse. Conditions: Compound A 1%, Tacrolimus 0.1%, Dexamethasone 0.01% w/v in 0.25% oxazolone. On the procedure:
as §2, §3

Where [6] appears, read: sensitization day, BALB/c male mouse.

Molecules are shown by their SMILES. Marks after values point to notes of the source that are not given here.

For the compound `Nc1nc2c([nH]1)c(=O)n(CC1CC1)c(=O)n2CC1CC1` [Cipamfylline, cipamfylline], the “Counts of scratching (Mean)” value in series [1] (0.03% w/v in acetone 50 μL topical 1 h before histamine 300 nmol/50 μL) stood at 579 beats/30 min; in series [1] (0.1% w/v in acetone 50 μL topical 1 h before histamine 300 nmol/50 μL) it was 369 beats/30 min; in series [1] (0.3% w/v in acetone 50 μL topical 1 h before histamine 300 nmol/50 μL), 130 beats/30 min. Further, the entries for the “Spontaneous locomotor activity (Mean)” value in series [2] (0.03% w/v in acetone 50 μL topical), in series [2] (0.1% w/v in acetone 50 μL topical) and in series [2] (0.3% w/v in acetone 50 μL topical) were 6760 counts/30 min, 5308 counts/30 min and 4924 counts/30 min, respectively. Besides, the “spontaneous locomotor activity lowering effect at a dose producing antipruritic effect, result in words” value in series [2] (Compound A 3% w/v, cipamfylline 0.3% w/v) is listed as “showed a significant spontaneous locomotor activity lowering effect”.

In the series with PDE4, `COc1cc2cc(CO)c(CO)c(-c3ccnc(-n4ncc5ccccc5c4=O)c3)c2cc1OC` [Compound B] displayed a half-maximal inhibitory concentration (IC50) of 1 nM. In series [3], the “Antipruritic activity (ratio of inhibition rate on scratching behavior to that of Compound A)” value was 154% and the “antipruritic effect in histamine-induced scratching model, result in words” value is listed as “remarkable antipruritic effect”.

Regarding `COc1cc2cc(CO)c(CO)c(-c3ccnc(-n4c(=O)cc(OC)c5ccccc54)c3)c2cc1OC` [Compound C], the IC50 in the series with PDE4 is 2 nM. Besides, in series [3], the “Antipruritic activity (ratio of inhibition rate on scratching behavior to that of Compound A)” value stood at 116% and the “antipruritic effect in histamine-induced scratching model, result in words” value is “remarkable antipruritic effect”.

Turning to `COc1cc2cc(CO)c(CO)c(-c3ccnc(-n4c(=O)cc(O)c5ccccc54)c3)c2cc1OC` [Compound D], half-maximal inhibition with PDE4 (IC50) was put at 2 nM. Also, in series [3], the “Antipruritic activity (ratio of inhibition rate on scratching behavior to that of Compound A)” value is given as 80% and the “antipruritic effect in histamine-induced scratching model, result in words” value is recorded as “remarkable antipruritic effect”.

Regarding `C[C@@H]1C[C@H]2[C@@H]3CCC4=CC(=O)C=C[C@]4(C)[C@@]3(F)[C@@H](O)C[C@]2(C)[C@@]1(O)C(=O)CO` [Dexamethasone], the “Counts of scratching (Mean ± standard error)” value in series [4] (7th day, BALB/c male mouse) is given as 1663 ± 144 (*) beats/2 hr; in series [4] (9th day), 1845 ± 442 beats/2 hr; in series [4] (11th day), 1274 ± 296 beats/2 hr; in series [4] (14th day) it was 1791 ± 354 beats/2 hr; in series [4] (16th day), 2211 ± 430 beats/2 hr. The “Ear auricle thickness (Mean)” value in series [5] (7th day) is listed as 0.35 mm; in series [5] (8th day), 0.46** mm; in series [5] (9th day), 0.40** mm; in series [5] (10th day), 0.45** mm; in series [5] (11th day) it was 0.43** mm; in series [5] (12th day) it was 0.54** mm. Also, the “Ear auricle thickness (Mean)” value in series [5] (14th day) is reported as 0.49** mm; in series [5] (15th day), 0.55** mm; in series [5] (16th day) it was 0.54** mm; in series [5] (17th day) it was 0.64** mm; in series [5] (setting [6]), 0.27 mm.

The compound `COc1cc2cc(CO)c(CO)c(-c3ccnc(-n4ccc5c(CCc6cccnc6)cccc5c4=O)c3)c2cc1OC` [Reference compound 3] showed an IC50 in the series with PDE4 of 0.1 nM. Besides, in series [3], the “Antipruritic activity (ratio of inhibition rate on scratching behavior to that of Compound A)” value is listed as −36% and the “antipruritic effect in histamine-induced scratching model, result in words” value is reported as “very weak or was not observed”.

For the compound `C=CC[C@@H]1/C=C(\C)C[C@H](C)C[C@H](OC)[C@H]2O[C@@](O)(C(=O)C(=O)N3CCCC[C@H]3C(=O)O[C@H](/C(C)=C/[C@@H]3CC[C@@H](O)[C@H](OC)C3)[C@H](C)[C@@H](O)CC1=O)[C@H](C)C[C@@H]2OC` [Tacrolimus], the “Counts of scratching (Mean ± standard error)” value is listed as 1130 ± 135 (**) beats/2 hr in series [4] (7th day, BALB/c male mouse); 1655 ± 231 beats/2 hr in series [4] (9th day); 990 ± 148 beats/2 hr in series [4] (11th day); 1023 ± 148 (**) beats/2 hr in series [4] (14th day); 2164 ± 324 beats/2 hr in series [4] (16th day). For the same compound, the “Ear auricle thickness (Mean)” value in series [5] (7th day) is 0.35 mm; in series [5] (8th day), 0.58 mm; in series [5] (9th day), 0.41** mm; in series [5] (10th day), 0.49** mm; in series [5] (11th day), 0.49** mm; in series [5] (12th day), 0.57** mm. The “Ear auricle thickness (Mean)” value is 0.52** mm in series [5] (14th day); 0.73** mm in series [5] (15th day); 0.65** mm in series [5] (16th day); 0.71** mm in series [5] (17th day); 0.27 mm in series [5] (setting [6]).
